# From US7175872B2, “Pyridinium-Betain compounds for use as taste modulators” (Nestec S.A., priority 2002, dated 2007)
# Structures can show the parent of a compound that is named as a salt.
# System: sweet taste of glucose
# Assay: Sweet taste detection threshold of glucose/Pyridinium-Betaine mixtures (triangle test, sensory panel)
# Type: in vivo
# Details: equimolar mixture with glucose; for Threshold decrease: vs glucose in water 50.0 mmol/L
# Experimental: • Sensory panel training: […] Sensory analyses were performed in a sensory panel room at 22-25° C. on three different sessions. • Taste thresholds: The taste thresholds of the tastants or mixtures containing basic tastants plus Pyridinium-Betains were determined in a triangle test using Evian® mineral water as the solvent at a defined pH ([…] and H.-D. Belitz, Z. Lebensm. Unters. Forsch. 1975, 159, 65-72). The samples (3 mL) were presented in order of increasing concentrations (serial 1:1 dilutions). The threshold values evaluated in two different sessions were averaged. […] The taste intensities of aqueous (Evian®) solutions containing a basic tastant, such as glucose and MSG, for example, in constant concentrations and the compounds of the general formula (A), for example […], in various concentrations were compared with those of a solution containing the basic tastant only. To achieve this, triangle tests were performed with two glass vials containing the basic tastant in constant concentrations, and one glass vial containing a stepwise 1:1-diluted mixture of basic […]. […] The relative taste strength (taste enhancing factor) of a mixture containing the basic […] was related to the basic tastants glucose, MSG, or other tastants, respectively, as standard substances, and was determined as the ratio of the concentrations c of iso-intensely tasting solutions of the basic tastant, such as glucose (glc), and the mixture containing tastant plus Pyridinium-Betain, […])=[…] This taste enhancing effect is illustrated in examples. The sweet taste thresholds of equimolar mixtures of sweet tasting compounds and various Pyridinium-Betaines were determined by a triangle test using EVIAN® mineral water as the solvent. The sensorial evaluations were performed at different pH values. The equimolar mixture of […] and sucrose at pH 7.0 was evaluated with a 4-fold lower sweet threshold concentration than pure sucrose (Table 1). […] is able to reduce the sweet threshold of glucose 16-fold at pH 7.0 and pH 9.0, whereas at pH 5.0 a gain the sweet taste perception […] (Table 2). […] Using the dipeptide derivative (S)-[…] as a taste-enhancer leads to a 16-fold threshold reduction compared to glucose.
smiles,measurement,setting,value
"CC(C(=O)[O-])[n+]1cc(O)ccc1CO (stereo not drawn) [Alapyridaine, N-(1-carboxyethyl)-3-hydroxy-6-hydroxymethyl-pyridinium inner salt]",Sweet detection threshold,pH 5.0,6.0 mmol/kg water
same,Taste quality,pH 5.0,sweet/
same,Threshold decrease,pH 5.0,8.0
same,Sweet detection threshold,pH 7.0,3.0 mmol/kg water
same,Taste quality,pH 7.0,sweet
same,Threshold decrease,pH 7.0,16
same,Sweet detection threshold,pH 9.0,3.0 mmol/kg water
same,Taste quality,pH 9.0,sweet
same,Threshold decrease,pH 9.0,16
